# Data published in patent US11066421B1, “Synthetic cinchona alkaloids against cancer” (Ares Pharmaceuticals, LLC, priority 2021, dated 2021).
# Assays:
# NALM-6 = experiment: MTT cytotoxicity assay, NALM-6; type: cell-based, human; conditions: 48 h, read-out: IC50 against NALM-6
# Experimental: (§1) Human B-lineage acute lymphoblastic leukemia (ALL) cell line NALM-6 and T-lineage ALL/lymphoma cell line MOLT-3 were obtained from American Type Culture Collection (Manassas, Va.). Cell lines were propagated in RPMI 1640 supplemented with 10% FCS, 4 mM glutamine, 100 units/ml penicillin G, and […] streptomycin sulfate. All tissue culture reagents were obtained from Life Technologies Inc. (Life Technologies, Inc., Gaithersburg, Md.). Cell lines were cultivated for a minimum of two passages after thawing prior to experimentation.
# (§2) The cytotoxicity of the compounds were tested against human ALL cell lines using MTT assays (Roche Molecular Biochemicals, Indianapolis, Ind.), as described previously R. K. Narla et al., 1998, Clin Cancer Res 4:1405-14). Briefly, exponentially growing tumor cells were seeded into a 96-well plate at a density of 4×10^4 cells/well and incubated in medium containing the cinchona alkaloid compounds at concentrations ranging from 0.7 to 100 μM for 48 h at 37° C. in a humidified 5% CO2 atmosphere. To each well, 10 μL of MTT (final concentration, 0.5 mg/ml) was added, and the plates were incubated at 37° C. for 4 h to allow MTT to form formazan crystals by reacting with metabolically active cells. The formazan crystals were solubilized overnight at 37° C. in a solution containing 10% SDS and 0.01 M HCl. The absorbance of each well was measured in a microplate reader (Labsystems) at 540 nm and a reference wavelength of 690 nm. To translate the A540 values into the number of live cells in each well, the A540 values were compared to those on standard A540 versus cell number curves generated for each cell line. The percentage of survival was calculated using the formula: % survival=[Live cell number (test)/Live cell number (control)]×100. The IC50 values were calculated by nonlinear regression analysis using the graphed Prism Software version 2.0 (GraphPad Software, Inc., San Diego, Calif.).
# MOLT-3 = experiment: MTT cytotoxicity assay, MOLT-3; type: cell-based, human; conditions: 48 h, read-out: IC50 against MOLT-3
# Experimental: as §1, §2
# [1] = test system: Lewis Lung Carcinoma Cells (LL2); experiment: Syngeneic mouse model of K-Ras mutant NSCLC; type: in vivo
# Experimental: Lewis Lung Carcinoma Cells (LL2) were purchased from ATCC. These murine NSCLC cells derived from C57BL/6 mice have a heterozygous Kras^G12C mutation (H. Y. Li et al., 2017, Cancer Immunol. Res. 5:767-77; B. Deskin et al., 2020, Translational Oncol. 13:135-45). Eight-9 weeks old, male C57/BL6 mice were inoculated with 1×10^6 LL2 cells in 200 μL PBS that were injected subcutaneously in the right flank. Treatments were initiated immediately after inoculation with LL/2 cells. Control mice were treated with intraperitoneal injections of 50 μL vehicle (DMSO), whereas test mice were treated with either AP-1 or AP-8 at the specified dose levels. Treatments were administered twice daily, 5 days per week for a total of 2 weeks. The clinical predictive value of this mouse model is well established (Kellar A, Egan C, Morris D. Preclinical Murine Models for Lung Cancer: Clinical Trial Applications. Biomed Research International Volume 2015|Article ID 621324|https://doi.org/10.1155/2015/621324).
# In the 1st experiment, mice were treated twice daily with intraperitoneal injections of vehicle (50 μL DMSO) (N=10) or AP-1 (125 μg˜5 mg/kg in 50 μL DMSO) (N=7) according to a 5 days on 2 days off weekly schedule for 4 weeks. Mice were monitored daily until tumors became visible on and tumor growth rates were compared between day 16 and day 20 by measuring the size of the tumors with a caliper in three dimensions. Tumor size was expressed as tumor volume in cubic millimeters (mm3). Tumor volumes were calculated using the formula for the volume of a prolate spheroid, V=4/3×3.14×length/2×width/2×depth/2. […] The depicted Whisker plots represent the median and values (Min to Max. Shown all points) for the tumor volume on day 16 (FIG. 11A), day 18 (FIG. 11 FIG. 11B) and day 20 (C), and fold-growth in 48 hours (FIG. 11D; day 18 size: day 16 size) measured in tumors from mice in each group. […] Statistical significance between the two groups is shown by the depicted p-values above the plots were computed using an independent samples T-test.
# Similarly, in the 2nd experiment, C57BL/6 mice were inoculated subcutaneously with LL2 cells (1×10^6/inoculum, volume: 200 μL) in the right flank. Mice were treated twice daily with intraperitoneal injections of vehicle (50 μL DMSO) (N=10) or AP-1 (100 μg˜4 mg/kg in 50 μL DMSO) (N=20) according to a 5 days on 2 days off weekly schedule for 2 weeks. Mice were monitored daily until tumors became visible on day 10. Tumor growth was assessed on day 10 and day 14 by measuring the size of the tumors with a caliper in three dimensions. Tumor size was expressed as tumor volume in cubic millimeters (mm^3). Tumor volumes were calculated using the formula for the volume of a prolate spheroid, V=4/3×3.14×length/2×width/2×depth/2. […]
# In the 3rd experiment, mice were treated twice daily with intraperitoneal injections of vehicle (50 μL DMSO) (N=10) or AP-1 (125 μg˜5 mg/kg in 50 μL DMSO) (N=18) according to a 5 days on 2 days off weekly schedule for 4 weeks. Mice were monitored daily until tumors became visible on day 13. Tumor growth was re-assessed every other day between day 13 and day 29 by measuring the size of the tumors with a caliper in three dimensions. Tumor size was expressed as tumor volume in cubic millimeters (mm^3). Tumor volumes were calculated using the formula for the volume of a prolate spheroid, V=4/3×3.14×length/2×width/2×depth/2. […]
Molecule,IC50 (NALM-6),IC50 (MOLT-3),"fold-growth in 48 hours (day 18 size: day 16 size) ([1]; 1st experiment, 5 mg/kg i.p. twice daily)","average tumor volume versus vehicle ([1]; 1st experiment, 5 mg/kg i.p. twice daily, day 16 to day 20)","average tumor volume versus vehicle ([1]; 2nd experiment, 4 mg/kg i.p. twice daily, day 10 and day 14)","average tumor volume versus vehicle ([1]; 3rd experiment, 5 mg/kg i.p. twice daily, day 13 to day 29)","average tumor volume versus vehicle ([1]; 2 mg/kg i.p. twice daily, day 14 to day 25)"
"2,4,6-Tri (9-O-dihydrocinchoninyl)pyrimidine [AP-5]",1.7 µM,,,,,,
"C=CC1CN2CCC1CC2C(Oc1cc(OC(c2ccnc3ccccc23)C2CC3CCN2CC3C=C)nc(OC(c2ccnc3ccccc23)C2CC3CCN2CC3C=C)n1)c1ccnc2ccccc12 (stereo not shown) [AP-1, 2,4,6-Tri(9-O-cinchoninyl)pyrimidine]",3.4 µM,6.7 µM,significantly reduced the rapid growth rate of the LL2 tumors,remained significantly smaller than the average tumor volume in vehicle-treated control mice,remained significantly smaller than the average tumor volume in vehicle-treated control mice,remained significantly smaller than the average tumor volume in vehicle-treated control mice,
"CCC1CN2CCC1CC2C(Oc1cc(OC(c2ccnc3ccc(OC)cc23)C2CC3CCN2CC3CC)nc(OC(c2ccnc3ccc(OC)cc23)C2CC3CCN2CC3CC)n1)c1ccnc2ccc(OC)cc12 (stereo not shown) [AP-8, 2,4,6-Tri (9-O-dihydroquinidinyl)pyrimidine]",3.7 µM,5.2 µM,,,,,remained significantly smaller than the average tumor volume in vehicle-treated control mice
